These results are taken from ChEMBL document CHEMBL1126625, “7-Azetidinylquinolones as antibacterial agents. Synthesis and structure-activity relationships” (J Med Chem, 1993).

Type in all cases: functional
One test relates to Pseudomonas aeruginosa. As to the kind of experiment: Minimum inhibitory concentration (MIC)preventing growth of Pseudomonas aeruginosa.
The subject of the next test is Staphylococcus aureus. As to the kind of experiment: Minimum inhibitory concentration (MIC) preventing growth of […].
A further test concerns Klebsiella pneumoniae. As to the kind of experiment: Minimum inhibitory concentration (MIC)preventing growth of Klebsiella pneumoniae.
Another test relates to Enterococcus faecalis. Briefly: Minimum inhibitory concentration (MIC) preventing growth of Streptococcus faecalis ATCC 10541.
The test system of the next test is Proteus vulgaris. As to the kind of experiment: Minimum inhibitory concentration (MIC) preventing growth of Proteus vulgaris.
In the next test the test system is Bacillus cereus. As to the kind of experiment: Minimum inhibitory concentration (MIC) preventing growth of Bacillus cereus.
Another test has as its system Bacillus subtilis. Briefly: Minimum inhibitory concentration (MIC) preventing growth of Bacillus subtilis.
The subject of the next test is Escherichia coli. As to the kind of experiment: Minimum inhibitory concentration (MIC)preventing growth of Escherichia coli.
A further test relates to Enterobacter cloacae. As to the kind of experiment: Minimum inhibitory concentration (MIC)preventing growth of Enterobacter cloacae.
Another test has as its system Morganella morganii. Briefly: Minimum inhibitory concentration (MIC) preventing growth of Morganella morganii.
Test [1] has as its system Staphylococcus epidermidis. As to the kind of experiment: pIn vitro minimum inhibitory concentration (MIC) that prevented growth of Staphylococcus epidermidis ATCC 155-1 (Se) after incubation at 37 degree C for 18 h.

What is called MIC is the lowest concentration found to suppress growth.

Converted amounts (≈) assume the structure as drawn.

With `CC1COc2c(N3CC(C)(N)C3)c(F)cc3c(=O)c(C(=O)O)cn1c23` (stereo unspecified), the MIC in the test with Pseudomonas aeruginosa worked out at 2 µg/mL (≈ 5.76 µM); against Staphylococcus aureus, 0.5 µg/mL (≈ 1.44 µM); against Klebsiella pneumoniae, 0.015 µg/mL (≈ 0.0432 µM); in the test with Enterococcus faecalis it was 0.5 µg/mL (≈ 1.44 µM); with Proteus vulgaris, 1 µg/mL (≈ 2.88 µM); against Bacillus cereus, 0.5 µg/mL (≈ 1.44 µM). Besides, the MIC in the test with Bacillus subtilis amounted to 0.12 µg/mL (≈ 0.345 µM); with Escherichia coli it was 0.12 µg/mL (≈ 0.345 µM); in the test with Enterobacter cloacae, 0.12 µg/mL (≈ 0.345 µM); in the test on Morganella morganii it was 0.25 µg/mL (≈ 0.72 µM); in test [1], 0.25 µg/mL (≈ 0.72 µM).
